# Data published in patent publication US11897925B2, “Treatment of homologous recombination deficient cancers” (Sinai Health System, priority 2020, dated 2024).
# Columns and labels:
# DLD1 BRCA2−/− cells = test: Micronuclei (MNi) assay after B6L induction; format: cell-based, human; conditions: BRCA2−/− cells held in G2 with RO-3306 prior to release in mitosis
# Procedure: For TOPBP1 rescue experiments, DLD1 wild-type and BRCA2^−/− cells stably expressing 2×HA-TOPBP1 were generated by viral transduction and selection with blasticidin (7.5 μg/mL for parental cells, 10 μg/mL for BRCA2^−/− cells). 3 days after transduction with sgRNA viral particles (as described in the clonogenic survival assays), cells were seeded in a 96-well plate (1,500 for wild-type cells; 4,000 for BRCA2^−/− cells) and cultured for 4 additional days. For inducible B6L expression experiments, DLD1 and MDA-MB-436 cells were seeded in a 96-well plate (1,500 for DLD1 wild-type cells; 4,000 for DLD1 BRCA2^−/− cells; 14,000 for MDA-MB-436) and cultured for up to 4 days in the presence of Aqua-Shield-1.
# For detection of micronuclei, cells were fixed with 2% PFA, washed 3 times with PBS, permeabilized with 0.3% Triton X-100 in PBS for 5 min, washed 3 times with PBS, incubated for 1 h with PBS+DAPI (0.5 μg/mL). Alternatively, cells were stained for immunofluorescence (CENPA detection). After the last wash with PBS, images were acquired on an IN Cell Analyzer 6000 automated microscope (GE Life Sciences) with a 40× objective. Micronuclei were automatically detected and counted using the Columbus analysis tool (PerkinElmer).
# U2OS cells = test: CIP2A/TOPBP1 mitotic foci and filaments after aphidicolin; format: cell-based, human; conditions: 400 nM aphidicolin, 16 h; wild type and MDC1−/− U2OS; mostly independent of MDC1
# Procedure: For the experiments relating to the mitotic structures labelled by CIP2A and TOPBP1, U2OS wild-type and MDC1^-/- cell lines were seeded on coverslips and either treated with 400 nM aphidicolin for 16 h (overnight) or left untreated. In order to perform immunofluorescence, cells were quickly washed once with cold PBS and then fixed with ice-cold methanol for 10 min on ice. Methanol was discarded and cells were washed two times with PBS before incubation with blocking buffer (10% FBS in PBS) for at least 1 h. Incubation with primary antibodies diluted in 5% FBS-PBS was performed overnight at 4° C. in a humidity chamber. Coverslips were then washed 3×10 min with blocking buffer and incubated with AlexaFluor-conjugated secondary antibodies for 1 h at room temperature in the dark. After washing 3×10 min with PBS, coverslips were mounted on glass microscopy slides (Thermo Scientific, 630-1985, dimensions […]×[…] mm) with […] mounting medium containing 0.5 μg/mL (DAPI) (Vector Laboratories, H-1200). Confocal images were acquired using a Leica SP8 inverse confocal laser scanning microscope with a 63×, 1.4-NA Plan-Apochromat oil-immersion objective. […] Images were recorded using optimal pixel size based on Nyquist criterion. […] Quantification of the foci was performed manually based on maximum intensity projections. […]
SMILES,B6L-induced micronucleation after holding cells in G2 (DLD1 BRCA2−/− cells),frequency of CIP2A-TOPBP1 foci and filaments in mitotic cells (U2OS cells)
O=C1NC(=NCc2cccs2)S/C1=C\c1ccc2ncccc2c1 [RO-3306],completely suppressed B6L-induced micronucleation,–
C[C@@]1(CO)[C@H](O)CC[C@@]2(C)[C@H]1CC[C@H]1C[C@@H]3C[C@@]12CC[C@]3(O)CO [aphidicolin],–,increased
